Source: patent publication US20110054014A1, “PRENYLFLAVANONE COMPOUNDS AND USES THEREOF” (NatureWise Biotech & Medicals Corporation, priority 2008, published 2011)
Like-named read-outs stand apart in the source and are kept apart here.

Test system: Human breast cancer MCF-7 and MDA-MB-231 cells
Test: Cytotoxicity assay (trypan blue exclusion)
Settings: for IC50: read-out: IC50 values
Experimental: Human breast cancer MCF-7 and MDA-MB-231 cells were purchased from the Food Industry Research and Development Institute (Hsinchu, Taiwan). The cells were cultured in Dulbecco's modified Eagle's medium (Gibco) containing 10% fetal bovine serum (FBS), a 1% dilution of penicillin-streptomycin, and 2 mM glutamine. Cells were maintained at 37° C. in a humidified atmosphere of 95% air and 5% CO2. However, MDA-MB-231 cells were cultured in L-15 medium (Gibco) containing 10% fetal bovine serum (FBS), a 1% dilution of penicillin-streptomycin, and 2 mM glutamine. Cells were maintained at 37° C. in a humidified atmosphere of 100% air and 0% CO2.
The cells (1.5×10^6 per dish) were cultured in a 100-mm dish and incubated for 14 h prior to treatment with DMSO or with different concentrations of propolins (2.5, 5.0, 10, and 20.0 μg/mL) for 48 h. The propolins were small compounds with their MWs ranging from 408-492 Da. These values were converted to their respective molarities.
The cells were counted and their viability was determined by trypan blue exclusion assay. The activity was shown as IC50 value (the concentration required to induce 50% cytotoxicity), and the average value was obtained from triplicate data points.

SMILES | IC50 (concentration required to induce 50% cytotoxicity, 48 h treatment, human breast cancer cells, cell line not given, one representative of three independent experiments) [µM] | IC50 (Homo sapiens, 48 h) [µM] | cytotoxic activity against human breast cancer cells (conclusion in words from Table 2)
CC(C)=CCC/C(C)=C/Cc1cc([C@@H]2CC(=O)c3c(O)cc(O)cc3O2)cc(O)c1O [Propolin F, reference compound] | 47.2 | – | –
CC(C)=CCC/C(C)=C/CC/C(C)=C/Cc1c(O)cc2c(c1O)C(=O)C[C@@H](c1ccc(O)c(O)c1)O2 [Propolin I, 5,7,3′,4′-tetrahydroxy-6-farnesylflavanone] | – | 10.2 | cytotoxic activity
CC(C)=CCC/C(C)=C/Cc1c(O)cc2c(c1O)C(=O)C[C@@H](c1ccc(O)cc1)O2 [Propolin J, 5,7,4′-trihydroxy-6-geranylflavanone] | – | 36.8 | –
